Results from a melting point compilation (Tetko et al.; mined from patent text by program, amines drawn as free bases though some values may be those of a salt).

melting point [°C]	Structure (SMILES)
79.5	O=Cc1cc([N+](=O)[O-])ccc1-c1ccccc1
152 to 154	O=C(O)C(Sc1nc2ccccc2s1)c1ccccc1 (centres undefined)
111 to 114	O=C(CCCN1CCC(=C(c2ccccc2)c2ccccc2)CC1)c1ccc(F)cc1
110 to 112	Cc1cc(F)ccc1Nc1nc(N(C)c2ccccc2)c2cccc(OCCCN(C)C)c2n1
150 to 153	O=C(N[C@@H](CSc1ccc(C(F)(F)F)cc1[N+](=O)[O-])C(=O)O)OCc1ccccc1
65	CCOCc1nc(C(C)(C)O)c(C(=O)OCOC(=O)C(C)(C)C)n1Cc1ccc(-c2ccccc2C(=O)O)cc1
137 to 138	NC(=O)c1ccccc1N1CCc2cc(Cl)ccc21
168 to 171	Cn1c(-c2ccc(OC3CCN(C4CCC4)CC3)cc2)nc2ccccc2c1=O
124 to 128	COc1ccccc1Oc1c(N)nc(-c2ncccn2)nc1OCCOc1ncc(Br)cn1
107 to 108	c1ccc(CN2CCC(Oc3cnccn3)(c3ccccc3)CC2)cc1
> 300	O=C(O)/C=C/c1ccc(-c2nc3c(=O)n(Cc4ccccc4)c(=O)n(Cc4ccccc4)c3[nH]2)cc1
200	CC(=O)NCCCC(=O)OC1c2ccccc2C(=O)N1c1ccc2ccc(Cl)nc2n1 (single isomer, unassigned; (+))
175 to 180	CS(=O)c1ccc2nc(NC(=N)N)nc(-c3ccccc3)c2c1 (centres undefined)
66 to 70	CS(=O)(=O)OCC1(c2ccc(Cl)cc2)CCC1
98 to 100	CN(CCN1CCC(=C(c2ccccc2)c2ccccc2)CC1)c1ncccn1

The next lines start with the molecule.

Structure (SMILES)	melting point [°C]
CNC(=O)c1ccc(-c2ccc3cnc(Nc4ccc(N5CCC(N6CCN(C)CC6)CC5)cc4OC)nn23)cc1	112 to 114
Cc1c2cnc3c([N+](=O)[O-])cccc3c2nn1C	235 to 236
COc1cc2c(c(N)c1OC)C(=O)C(=Cc1cc(C)c(O)c(C)c1)C2	238 to 240
CNC1=CC=CC(OCCCN2CCC(c3noc4cc(F)ccc34)CC2)(C(C)=O)C1 (centres undefined)	151 to 153
COCc1cc(-c2nnc3c4ccccc4c(OCc4ncn(C)n4)nn23)no1	236
CC(C)SC(F)(F)c1nnc(N)s1	119 to 121
CC(C)(C)c1cc(Sc2nnc(NC(=N)N)s2)cc(C(C)(C)C)c1O	248 to 249
COc1cc(OC)c2nccc(Cl)c2c1	115 to 116
CCCc1c(OCCCCCOc2ccc(-c3cc4ccccc4c(=O)o3)cc2CCC(=O)OCC)ccc2c1OCCC2=O	144
NS(=O)(=O)C1(c2ncc(C(F)(F)F)cc2Cl)C=CC(Cl)=CC1Cl (centres undefined)	125 to 126
OCC(F)(F)c1ccccn1	58 to 60
CC(=O)OCS(=O)(=O)c1c(F)cc(-c2c(-c3ccccc3)noc2C)cc1F	165 to 166
CCOC(=O)c1nsc(=O)o1	49
COc1ccc(C(C#Cc2cnc(N)nc2)Cc2nc(C)co2)cc1OC1CCCC1 (racemic)	103 to 105
C#CCOc1cc(O)c2c(c1)OC(C)(C)CC2=O	122 to 124
Brc1ccc2nc(N3CCOCC3)nn2c1	136
CC1(C)CC(=O)C(c2c(Cl)cc([N+](=O)[O-])cc2Cl)C(=O)C1	288 to 290
CCN=C1SC(=CC(=O)O)C(=O)N1CC	148 to 152
COC(=O)C1=CN(c2ccc(O)cc2)C(C2CC=CCC2)CC1=O (centres undefined)	155 to 157
CCN1C(=O)C(=CC=C2C=C(c3ccc(OC)cc3)C=C3N2c2ccccc2C3(C)C)SC1=S	210 to 211
CCc1nc2cc(F)ccc2n1C1CC2CCC(C1)N2CCCSc1ccc(F)cc1 (centres undefined)	127 to 128
O=CCN1C=C(C(=O)O)Cc2cc(F)c(F)c(F)c21	220 to 222
CCCCCCCCCCCCOc1cc(O)c(C(=O)c2ccccc2)cc1Cl	75 to 77
COC(=O)C(=C1SCCCN1C(=O)OC)[N+](=O)[O-]	71 to 72
